Data reported in patent US20230190663A1, “PRUSSIAN BLUE NANOPARTICLES FUNCTIONALIZATION WITH LATENCY REVERSING AGENTS AND BROADLY NEUTRALIZING ANTIBODIES, AND APPLICATIONS THEREOF” (THE GEORGE WASHINGTON UNIVERSITY, priority 2020, published 2023).

How the values were obtained:
[1] = tested on: peripheral blood mononuclear cells (PBMCs); assay: Flow cytometry of immune cell ratios and activation in treated PBMCs; type: cell-based, human; settings: compared to untreated PBMCs, FIG. 6G
Procedure: Example 4. Primary peripheral blood mononuclear cells (PBMCs) were isolated from blood collected from healthy human donors. PBMCs were incubated with increasing concentrations of Poly-PBNP (50, 5 and 1 μg/mL of attached PolyIC) and same concentrations of Free-Poly I:C overnight. PMA (Phorbol 12-myristate 13-acetate), a known immune-stimulator, was used as positive control herein. Following this treatment, the number of viable cells was assessed.
Treated PBMCs were subjected to flow cytometry to examine ratios of immune cells in response to Poly-PBNP and Free-Poly I:C treatments. […] There was no change in the amount of NK cells (CD56+ cells) for any of the treatment groups studied, compared to untreated PBMCs (FIG. 6F).

[2] = tested on: J-LAT cells; assay: Latency reversal (GFP expression) in J-LAT cells, a model of latent HIV cells; type: cell-based
Procedure: To determine the efficiency of free Poly I:C compared to PolyIC-PBNPs on HIV reactivation, increasing concentrations were added to J-LAT cells. Specifically, nanoparticles (PolyIC-PBNP) were generated at varying Poly I:C concentrations (1.75, 1, 1.5 and 0.75 mg/mL) and added to the cell culture medium to treat the J-LAT cells.

[3] = tested on: J-LAT cells; assay: Viability / cytotoxicity of treated J-LAT cells; settings: 1-15 μL, not transfected, FIG. 4B
Procedure: Example 3. […] J-LAT cells harbor latent, transcriptionally competent HIV provirus that encodes green fluorescent protein (GFP) as an indicator of HIV-1 reactivation. […] Generally for effective latency reversal, free Poly I:C has to be delivered into the cytoplasm of the latently infected cells via transfection.
Next, J-LAT cells were treated with increasing concentrations of Citrate-PBNP, PEI-PBNP or polyIC-PBNP (1 μL, 5 μL, 10 μL and 15 μL with [PBNP]=2 mg/mL and [polyIC]=0.5 mg/mL) where the PBNPs were added to the cell media (i.e., the PBNPs were not transfected into the cells).

## polyinosinic-polycytidylic acid [Free Poly I:C]
[1]
  NK cells activation (CD56+CD69+): no changes
[2]; HIV reactivation in J-LAT cells, overnight, log(agonist) vs. normalized response, variable slope
  Hill Slope (best-fit value): 1.904
[2]; J-LAT cells, 1, 5, 10 and 15 μL added to cell media, not transfected, FIG. 4A
  latency reversal at increasing concentrations: reversed latency in a dose dependent manner
[2]; J-LAT cells, overnight incubation, Table 1 prints none
  EC50 of HIV reactivation (GFP expression): 6.944 µg/mL
[3]
  cytotoxicity at increasing concentrations: caused cytotoxicity at higher concentrations
